Measurements from patent US7001897B2, “1-methylcarbapenem derivatives” (Sankyo Company, Limited, priority 2000, dated 2006).
In brackets after ≈: the same amount, converted by molar mass.

Legend:
[1] = Pharmacokinetics, plasma concentration by bioassay after subcutaneous injection; assay type: in vivo; conditions: mouse, sc, mice (ddY, male), 20 mg/kg subcutaneous; for AUC: read-out: AUCall (area under the concentration-time curve in plasma); for Cmax: read-out: Cmax (maximal plasma concentration); for half-life: read-out: T1/2 (half-life in plasma concentration) (converted)
Procedure: The compounds of the present invention compound (20 mg/kg) was subcutaneously injected to mice (n=3, ddY, male, purchased from SLC Japan). The plasma concentration of the compound was determined by a bioassay method at 5, 15, and 30 min, and 1, 1.5, and 2 hr after administration. In the Table, Cmax, T1/2, and AUCall indicate the maximal plasma concentration, half-life in plasma concentration, and area under the concentration-time curve in plasma of the compound, respectively.

Staphylococcus aureus = test: In vitro antibacterial activity, agar plate dilution method; assay type: cell-based; conditions: A: Staphylococcus aureus; agar plate dilution; read-out: Minimum Concentration to Inhibit Growth of the Employed Bacteria A
Procedure: (§1) To assess the antibacterial activities of the compounds, the minimum concentrations (μg/ml) of the compounds to inhibit growth of various pathogenic bacteria were determined by agar plate dilution method. In this Table, the employed bacteria A, B, and C were as follow: • A: Staphylococcus aureus • B: Streptococcus pneumoniae • C: Haemophilis influenzae strain 9787 (a strain producing β-lactamase)

Streptococcus pneumoniae = test: as above; assay type: cell-based; conditions: B: Streptococcus pneumoniae; agar plate dilution; read-out: Minimum Concentration to Inhibit Growth of the Employed Bacteria B
Procedure: as §1

[2] = test system: Haemophilis influenzae strain 9787 (a strain producing β-lactamase); test: as above; assay type: cell-based; conditions: C: Haemophilis influenzae strain 9787 (β-lactamase producing); agar plate dilution; read-out: Minimum Concentration to Inhibit Growth of the Employed Bacteria C
Procedure: as §1

[3] = test system: S. pneumoniae 9605 (PRSP); test: In vivo antibacterial activity, intraperitoneal infection of mice; conditions: Streptococcus pneumoniae, 168 h; male ddY mice, i.p. S. pneumoniae 9605 (PRSP), single subcutaneous treatment, Probit method from survival rates 7 days after infection
Procedure: Male ddY mice of 4 weeks old (purchased from SLC Japan) were intraperitoneally inoculated with S. pneumoniae 9605 (PRSP) at a volume of 0.2 ml (containing 5% mucin, 1-5×10^3 colony forming unit (cfu)/mouse). Immediately after the mice were infected, they were subcutaneously treated with the test compound singly at a volume of 0.1 ml. Seven mice were used per group. A solution of the test compound prepared by 2-step dilution was used for the experiment. ED50 values of the compounds were calculated by the Probit method from survival rates 7 days after infection.

Row | Structure (SMILES) | AUC [1] | Cmax [1] | half-life [1] | MIC (Staphylococcus aureus) | MIC (Streptococcus pneumoniae) | MIC [2] | ED50 [3]
1 | C[C@@H](O)[C@H]1C(=O)N2C(C(=O)O)=C(SC3CN(c4nc(C(=O)N[C@H]5CCNC5)cs4)C3)[C@H](C)[C@H]12 [Example 57, (1R,5S,6S)-2-{1-[4-((3S)-pyrrolidin-3-ylcarbamoyl)-1,3-thiazol-2-yl]azetidin-3-yl}thio-6-[(R)-1-hydroxyethyl]-1-methylcarbapen-2-em-3-carboxylic acid] | 45300 ng·h/mL | 48200 ng/mL | 22.8 min | 0.025 µg/mL (≈ 0.0506 µM) | 0.2 µg/mL (≈ 0.405 µM) | 0.2 µg/mL (≈ 0.405 µM) | 0.855 mg/kg
2 | C[C@@H](O)[C@H]1C(=O)N2C(C(=O)O)=C(SC3CN(c4nc(C(=O)N[C@@H]5CCNC5)cs4)C3)[C@H](C)[C@H]12 [Example 58, (1R,5S,6S)-2-{1-[4-((3R)-pyrrolidin-3-ylcarbamoyl)-1,3-thiazol-2-yl]azetidin-3-yl}thio-6-[(R)-1-hydroxyethyl]-1-methylcarbapen-2-em-3-carboxylic acid] | 47400 ng·h/mL | 63900 ng/mL | 24.6 min | ≤ 0.012 µg/mL | 0.2 µg/mL (≈ 0.405 µM) | 0.2 µg/mL (≈ 0.405 µM) | 0.899 mg/kg
3 | C[C@@H](O)[C@H]1C(=O)N2C(C(=O)O)=C(SC3CN(c4nc(C(=O)N5CCNCC5)cs4)C3)[C@H](C)[C@H]12 [Example 60, (1R,5S,6S)-2-{1-[4-(piperazine-1-carbonyl)-1,3-thiazol-2-yl]azetidin-3-yl}thio-6-[(R)-1-hydroxyethyl]-1-methylcarbapen-2-em-3-carboxylic acid] | 27900 ng·h/mL | 46100 ng/mL | 18 min | 0.025 µg/mL (≈ 0.0506 µM) | 0.39 µg/mL (≈ 0.79 µM) | 0.39 µg/mL (≈ 0.79 µM) | 1.41 mg/kg
4 | C[C@@H](O)[C@H]1C(=O)N2C(C(=O)O)=C(SC3CN(c4nc(CN)cs4)C3)[C@H](C)[C@H]12 [Example 67, (1R,5S,6S)-2-[1-(4-aminomethyl-1,3-thiazol-2-yl)azetidin-3-yl]thio-6-[(R)-1-hydroxyethyl]-1-methylcarbapen-2-em-3-carboxylic acid] | 34100 ng·h/mL | 40200 ng/mL | 27 min | ≤ 0.012 µg/mL | 0.39 µg/mL (≈ 0.95 µM) | 0.2 µg/mL (≈ 0.487 µM) | 1.6 mg/kg
5 | C[C@@H](O)[C@H]1C(=O)N2C(C(=O)[O-])=C(SC3CN(c4nc(C(=O)N5CCOCC5)co4)C3)[C@H](C)[C@H]12.[Na+] [Example 76, (1R,5S,6S)-2-[1-(4-morpholinocarbonyl-1,3-oxazol-2-yl)azetidin-3-yl]thio-6-[(R)-1-hydroxyethyl]-1-methylcarbapen-2-em-3-carboxylic acid sodium salt] | 27900 ng·h/mL | 52800 ng/mL | 11.4 min | 0.05 µg/mL | 0.2 µg/mL | 0.39 µg/mL | 0.534 mg/kg
